According to a melting point compilation (Tetko et al.; mined from patent text by program, amines drawn as free bases though some values may be those of a salt):

| melting point | SMILES |
| --- | --- |
| 198 to 200 °C | N#CCc1ccc([N+](=O)[O-])c2[nH]ncc12 |
| 172 to 173 °C | CCC(=O)OC1C(CO)OC(n2cnc3c(N)ncnc32)C1OC(=O)CC (centres undefined) |
| 128 to 133 °C | CCc1nc(N)nc(N)c1CCCc1cccc(-c2ccccc2)c1 |
| 220 to 221 °C | CC1(C)Oc2ccc(S(C)(=O)=O)cc2[C@@H](N2CCCS2(=O)=O)[C@@H]1O (relative stereo) |
| 76 to 77 °C | CSc1ccc(C=O)c(Cl)c1 |
| 159 to 160 °C | COc1ccc(Cl)cc1C(=O)NCCc1ccc([N+](=O)[O-])cc1 |
| 136 to 138 °C | OC(CNCCC1c2ccccc2COc2ccccc21)COc1ccccc1 (centres undefined) |
| 118 to 119 °C | COc1ccc2[nH]c(C)cc2c1O |
| 186 to 190 °C | O=c1c2cc(O)ccc2oc2c(CO)ccc(NCCN3CCCC3)c12 |
| 155 to 157 °C | COc1ccc(-c2cc(=Nc3ccc(OCC4CO4)cc3)n(C)c(=O)n2C)cc1OC (centres undefined) |
| 170 to 174 °C | O=C1NC(=O)C(Cc2ccc(C(=O)COc3ccccc3)cc2)S1 (centres undefined) |
| 210 to 212 °C | O=Cc1ccc(-c2c(-c3nn[nH]n3)[nH]c3ccccc23)cc1 |
| 133 °C | Cc1cccc(NC(=O)NCC(=O)N(CC(=O)OC(C)(C)C)c2ccccc2C)c1 |
| 219 to 220 °C | C[C@H]1C(=O)N2[C@H](c3ccc4c(c3)OCO4)c3[nH]c4ccccc4c3C[C@@H]2C(=O)N1C |
| 152 to 156 °C | O=C(Nc1ccccc1O)c1ccc(CSc2ccc(O)cc2)cc1 |
| 74 to 75 °C | CCn1nc(C#Cc2ccccc2)ccc1=O |
| 225 to 226 °C | O=C(O)C1=Cc2cc(Br)cc(Br)c2OC1C(F)(F)F (centres undefined) |
| 203 to 205 °C | Cc1c(NC(=O)N2CCC(c3ccc(Cl)cc3)CC2)ccc2cc(CN3CCCC3)cnc12 |
| 52 to 54 °C | CS(=O)(=O)Cc1ccc(C(=NN)c2ccc(Cl)cc2)cc1 |
| 204 to 206 °C | O=C(/C=C/c1ccc(O)c(O)c1)Nc1ccccc1C(=O)O |
| 168 to 172 °C | CCCCCCCCCCCCOC(=O)NCCC(=O)NC(Cc1c[nH]cn1)C(=O)O (centres undefined) |
| 158 to 162 °C | N=C1C2CC(F)CN2C(=O)CN1C1CCC(Cn2cncn2)C1 (centres undefined) |
| 235 to 236 °C | O=C(NC(CO)c1ccccc1)c1ccccc1 (centres undefined) |
| 135 to 137 °C | Cc1ccccc1N1CCc2nnc3c(C)cccc3c21 |

| melting point | SMILES |
| --- | --- |
| 211 to 212 °C | COc1ccnc(CCc2nc3cc(-c4ccc(S(=O)(=O)NCc5ccccc5)cc4)cnc3[nH]2)c1 |
| 95 to 98 °C | CCCCc1nc(Cl)c(CO)n1Cc1ccc(-c2ccccc2-c2nnnn2C(c2ccccc2)(c2ccccc2)c2ccccc2)cc1 |
| 138 to 145 °C | CC(C)(C)c1cc(CN)nn1-c1ccc(S(C)(=O)=O)cc1 |
| 177 to 179 °C | CCc1cc(NCc2ccc(-c3ccccc3-c3nnn[nH]3)cc2)n2nccc2n1 |
| 96 to 98 °C | O=C1CC(c2ccc(Cl)cc2)Oc2ccccc21 (centres undefined) |
| 109 to 115 °C | COc1cc2c(cc1Nc1ncc(Cl)c(N[C@@H]3CCCC[C@H]3NS(C)(=O)=O)n1)CCNC(=O)C2 |
| 101 to 112 °C | CN(C)CCCCCC=C(NC(=O)C1CC1(C)C)C(=O)O (centres undefined) |
| 74 to 80 °C | O=C(O)CCCc1cc2cc(Cl)ccc2n1S(=O)(=O)c1ccc2ncsc2c1 |
| 64.6 to 67.2 °C | C=CC(C)OC(=O)c1c(C)nc2c(cnn2CCCCC)c1N (centres undefined) |
| 214 to 216 °C | CCCc1nn(C)c2c(=O)[nH]c(-c3cc([N+](=O)[O-])ccc3OCC)nc12 |
| 68 to 71 °C | COC1c2ccccc2CSc2ccc(Br)cc21 (centres undefined) |
| 167 to 168 °C | CCOC(=O)N1CCC2C(C1)c1cccc3c1N2CC(=O)N3 (centres undefined) |
| 241 to 243 °C | NC(=O)c1cc(-c2nccs2)[nH]c1C(CC1CCOCC1)c1ccc(S(=O)(=O)C2CC2)cc1 (centres undefined) |
| 160 to 163 °C | Cc1ncccc1C(N)=O |
| 177 to 179 °C | COc1ccc(CCN(CCc2ccc(-c3ccccc3)cc2)C(=O)CCCCC(N)=O)cc1OC |
| 198 to 201 °C | CCn1c(=O)c2[nH]c(C(C)C)nc2n(Cc2ccc(OC)c(OC)c2)c1=O |
| 186 to 187 °C | Cc1cc(Cl)cc(Cl)c1S(=O)(=O)Nc1nc(CC(=O)N2CCOCC2)c(C)s1 |
| 307 to 308 °C | Cn1c(CN2C(=O)c3ccccc3C2=O)c(-c2ccc(O)cc2)c2cc(Cl)ccc2c1=O |
| 106 °C | CCOC(=O)[C@H](C)NC(=O)CCc1cc(Cl)ccc1C(=O)CCCNC(C)=O |
| 139 to 140 °C | CC1(C)CCC[C@H](NC(c2ccccc2)(c2ccccc2)c2ccccc2)C(=O)N1 |
| 150 °C | CC1(C)CS(=O)(=O)CC(C)(C)N1Br |
| 120 to 122 °C | OC[C@H]1OC(O)[C@H](O)[C@H](F)[C@@H]1O (some centres undefined) |
| 105 to 106 °C | C=CCCCCCCCCC(O)CNC(=O)N(C)O (centres undefined) |
| 164 to 166 °C | CC(C)OC(=O)CC(NCCCN(C)C)C(=O)O (centres undefined) |

| melting point | SMILES |
| --- | --- |
| 139 to 140 °C | O=C(NCCOc1ccc(CC(Oc2ccc(F)cc2)C(=O)O)cc1)c1ccc(-c2ccccn2)cc1 (centres undefined) |
| 160 to 165 °C | CC(C)(C)OC(=O)N[C@@H]1CN(c2ccccc2)c2ccccc2NC1=O |
| 130 to 132 °C | CCc1n[nH]c(CC)c1CCCCCCOc1ccc([N+](=O)[O-])cc1Cl |
| 209 to 210 °C | OC1CSC(Oc2ccc(F)nc2)C(O)C1O (centres undefined) |
| 93 to 95 °C | CC(C)n1nc(-c2ccccc2)c(-c2ccc(F)cc2)c1CBr |
| 48 to 50 °C | CCCCC1(C#N)C2CC3CC(C2)CC1C3 (centres undefined) |
| 96 to 100 °C | COc1cc2c(cc1Cl)C(=O)CC(C)O2 (centres undefined) |
| 122 °C | Cc1nn(C)cc1C(=O)NC(C#N)c1ccco1 (centres undefined) |
| 243 to 245 °C | CS(=O)(=O)c1ccc(-c2cc(-c3csc(N)n3)sc2-c2ccc(F)cc2)cc1 |
| 151 to 152 °C | COc1ccc(CN(Cc2ccco2)S(=O)(=O)c2ccc(C(=O)O)cc2)cc1 |
| 147 to 148 °C | CN(C)c1ccc(C(NCCO)C(O)c2ccccc2)cc1 (centres undefined) |
| 143 to 147 °C | CC(C)(C)OC(=O)N1CCN(Cc2ccc(NC(=O)Oc3ccccc3)c(C(F)(F)F)c2)CC1 |
| 65 °C | CCCCC(Cc1cccnc1)(C(=O)O)S(=O)(=O)c1ccc(OC)cc1 (centres undefined) |
| 230 to 232 °C | Cc1cc(C)c(Nc2nc(C)ncc2S(=O)(=O)c2ccc(-n3ccnc3)cc2)c(C)c1 |
| 133 to 134 °C | CNC(=O)c1ccccc1C(O)c1ccc(F)cc1 (centres undefined) |
| 132 to 133 °C | C#CCOC(=O)C1=C(C)NC(C)=C(C(=O)OCC)C1c1cccc([N+](=O)[O-])c1 (centres undefined) |
| 217 °C | CC(C)(C)OC(=O)CNC1(c2ccccc2Cl)C(=O)Nc2ccc(Cl)cc21 (centres undefined) |
| 216 to 218 °C | COc1cc2c(cc1C(F)(F)F)N(C(=O)Nc1cc(Br)c(C)c(-c3cccnc3)c1)CC2 |
| 74 to 76 °C | CCCc1c(S(=O)CCCOc2ccc(C(C)=O)c(OCCCC(=O)OCC)c2CCC)ccc(C(C)=O)c1O (centres undefined) |
| 123 to 126 °C | CC(C)(C)NCC(O)COc1ccc(C=O)cc1 (centres undefined) |
| 93 to 96 °C | CCOC(=O)c1cnc2c(cnn2Cc2ccco2)c1OCC |
| 80.5 to 82.5 °C | CC(C)c1cn(C(C)(C)C(=O)N(C)C)nc1-c1ccccc1 |
| 245 to 248 °C | CNc1c(F)ccc(-n2cc(C(=O)O)c(=O)c3cc(F)c(NC)c(Cl)c32)c1F |
| 243 to 244 °C | Nc1nc(-c2ccccc2)c(-c2ccnc(Nc3cccc(I)c3)n2)s1 |

| melting point | SMILES |
| --- | --- |
| > 275 °C | CS(=O)(=O)NC1CC(N)(C(=O)O)C2C(C(=O)O)C12 (centres undefined) |
| 216 to 217 °C | [O-][N+]1=C(c2ccccc2Cl)c2cc(Cl)ccc2-c2ncncc2C1 |
| 75 to 77 °C | O=C(NCCOc1ccc(CC(Sc2ccccc2)C(=O)O)cc1)c1ccc(-c2ccccn2)cc1 (centres undefined) |
| 149 to 151 °C | On1c(-c2ccccc2)csc1=S |
| 178 to 182 °C | COC(=O)Nc1ccc(CN2CCC(C(O)(c3ccc(OC(F)(F)F)cc3)c3ccc(OC(F)(F)F)cc3)CC2)cc1 |
| 162 to 164 °C | O=C1c2ccccc2S(=O)(=O)N1COc1ccc([N+](=O)[O-])cc1 |
| > 210 °C | CCCCCCCCCCOc1ccc2c(=O)c3cccc(C(=O)O)c3oc2c1CCC(=O)O |
| 253 to 254 °C | COCOc1ccc(-c2ccc(C=C3SC(=O)NC3=O)cc2)cc1C12CC3CC(CC(C3)C1)C2 |
| 194 to 195 °C | COc1ccc(NC(=O)c2ccccc2)cc1NC(=S)Nc1cc(Cl)cc(Cl)c1 |
| 182 to 183 °C | COc1ccc(-c2cc(=O)n(Cc3ccncc3)nc2-c2ccc(OC)cc2)cc1 |
| 196 to 197 °C | CCCCOc1c(N(C)C(=O)OC(C)(C)C)n(CC(C)(C)C)c(=O)c2ccc(O)cc12 |
| 118 to 119 °C | CCN(C(=O)c1ccc(Cn2cnc3ccccc32)cc1)C1CCCCC1 |
| 104 to 106 °C | CC(C)c1nc(CCCOCc2ccccc2)n(CCO)c1Sc1cc(Cl)cc(Cl)c1 |
| 159 to 160 °C | COC1=C(c2ccccc2)C(CC(=O)O)OC1=O (centres undefined) |
| 215 to 220 °C | O=C(Cn1c(-c2ccc(F)cc2)ncc(NC(=O)OCc2ccccc2)c1=O)NC(Cc1ccccc1)C(=O)C1=NCCO1 (centres undefined) |
| 142 °C | CN1CCN(C(=O)Nc2cccc3nc(NC4CCc5ccccc54)ccc23)CC1 (centres undefined) |
| 146 to 149 °C | CC(=O)c1cccc(-c2ccc(O)cc2)c1 |
| 181 to 183 °C | CN1CCC(N(C)S(=O)(=O)c2ccc(Nc3nccc(Nc4ccc(F)c(F)c4)n3)cc2)CC1 |
| 153 to 154 °C | CCOC(=O)c1cn(C2CC2)c2c(Cl)c(F)c(F)c(C)c2c1=O |
| 54 to 56 °C | CCCOc1ccc(O)cc1OC |
| 175 to 178 °C | COc1ccc(OC)c2c1C[C@](O)(C(C)=O)CC21SCCS1 |
| 105 to 106 °C | CN(C)C(=O)c1ccc(CNC(=O)C2Cc3ccccc3N2S(=O)(=O)c2ccc(-c3ccccc3C(F)(F)F)cc2)cc1 (centres undefined) |
| 146 to 148 °C | Cc1c(C(=O)NNC(C)(C)C)ccc2c1CCCO2 |

| SMILES | melting point |
| --- | --- |
| O=[N+]([O-])c1ccc(N2C[C@@H]3C[C@H]2CS3)cc1F | 97 to 98 °C |
| NC(=O)NCC#CCN1CCCC1 | 71 to 73 °C |
| CC(C)(CO)NC(=O)c1nn(-c2ccc(Cl)cc2)c2c1C1CCC2C1 (centres undefined) | 167 to 169 °C |
| O=C(CCC1CCCCC1)NC1N=C(C2CCCCC2)c2ccccc2NC1=O (centres undefined) | 133 to 138 °C |
